Laboratory results reported in ChEMBL document CHEMBL5724558, “Image-based profiling of drug vulnerabilities in CRC organoids” (2024).
“And” between values parts separate entries of the source, which are not always exact repeats. Equal entries are not always repeated.

Experiments:
Format in all cases: functional, Homo sapiens
Parameters in all cases: dose or concentration left out as unconfirmed
Colon cancer organoid [1] = assay: Image-based profiling of donated chemical probes and chemogenomic kinase set in O06 CRC organoid. Image analysis is performed on the sum area metric, and the data were normalized to the DMSO control. After imaging the organoid viability is measured using the OneGloEX Luciferase Assay System. The normalized viability data and sum area are reported.
Colon cancer organoid [2] = assay: Image-based profiling of donated chemical probes and chemogenomic kinase set in O21 CRC organoid. Image analysis is performed on the sum area metric, and the data were normalized to the DMSO control. After imaging the organoid viability is measured using the OneGloEX Luciferase Assay System. The normalized viability data and sum area are reported.
Colon cancer organoid [3] = assay: Image-based profiling of donated chemical probes and chemogenomic kinase set in O09 CRC organoid. Image analysis is performed on the sum area metric, and the data were normalized to the DMSO control. After imaging the organoid viability is measured using the OneGloEX Luciferase Assay System. The normalized viability data and sum area are reported.

SMILES | Cell Viability (Colon cancer organoid [1]; Replication number 1) | Cell Viability (Colon cancer organoid [1]; Replication number 2) | Cell Viability (Colon cancer organoid [2]; Replication number 1) | Cell Viability (Colon cancer organoid [2]; Replication number 2) | Cell Viability (Colon cancer organoid [3]; Replication number 1) | Cell Viability (Colon cancer organoid [3]; Replication number 2)
CC(=O)N1CCC(c2ccc(C(=O)NC(=N)N)cc2C(F)(F)F)CC1 [BI 9627] | 92.5077% and 96.2529% | 95.2505% and 62.3038% | 89.2518% and 118.176% | 98.5958% and 100.51% | 138.648% and 103.929% | 116.481% and 107.777%
Cn1cncc1[C@@](O)(COc1ccc(C#N)cc1-c1ccc(OC(F)(F)F)cc1)c1ccc(C#N)cc1 [A-108] | 98.5597% and 105.855% | 74.5028% and 111.105% | 75.0431% and 83.2471% | 104.838% and 112.755% | 62.58% and 86.4879% | 152.883% and 128.222%
CC(=O)c1c(NS(C)(=O)=O)c2cc(-c3ccc(Cl)cc3)c(-c3ccc(Cl)cc3Cl)nc2n(C)c1=O [MRL-CB1-NC] | 116.774% and 92.5059% | 73.5946% and 87.6518% | 126.549% and 100.129% | 108.062% and 94.898% | 160.352% and 102.495% | 132.682% and 100.183%
O=C(NCCCN1CCOC1=O)c1cnc(NCc2cc(Br)ccc2Br)nc1NC1CCCC1 | 128.504% and 125.145% | 109.486% and 115.731% | 88.4413% and 90.6749% | 101.16% and 88.408% | 172.879% and 128.436% | 143.806% and 111.114%
CN(C)C(=O)c1ccc(-c2cc(C(=O)N[C@@H]3CCc4ccccc43)no2)cc1O | 75.5057% and 77.557% | 96.6364% and 86.0329% | 107.545% and 128.739% | 101.745% and 90.2148% | 44.4352% and 76.507% | 55.2789% and 66.994%
Cc1cnc(Nc2ccc(F)cc2Cl)nc1-c1c[nH]c(C(=O)N[C@H](CO)c2cccc(Cl)c2)c1 | 3.326% and 7.634% |  | 28.1046% and 23.9721% | 23.785% and 21.0148% | 6.582% and 13.6138% | 
CC1(C)C(N)=Nc2cc(OCCCCN3Cc4ccc(OCc5cn(CC(=O)N6CCC(CCN7CCCC7)CC6)nn5)cc4C3)c(OCC3CC3)cc21 | 120.738% and 74.8993% | 69.8334% and 85.077% | 75.5552% and 109.928% | 77.1471% and 105.251% | 129.867% and 99.2272% | 184.968% and 121.159%
Cl.Cl.NC1(c2ccc(-c3nc4ccn5c(=O)[nH]nc5c4cc3-c3ccccc3)cc2)CCC1 | 82.4513% and 94.6892% | 74.7027% and 107.425% | 81.7246% and 91.8083% | 79.6922% and 92.9418% | 47.4878% and 37.8628% | 66.6317% and 37.3678%
O=C(NCCN1CCOCC1)c1ccc2c(c1)C(=O)c1ccc(Nc3ccc(F)c(NC(=O)c4ccccc4)c3)cc1CC2 [FS-694] | 84.5729% and 99.5951% | 109.979% and 139.596% | 104.56% and 105.311% | 87.9959% and 93.3039% | 75.6733% and 93.7852% | 52.7357% and 85.0515%
